Data as given in patent US20080234304A1, “N3-Pyridyl-Thiamine And Its Use In Cancer Treatments” (AVEO PHARMACEUTICALS, INC., priority 2004, published 2008).
“Also recorded” adds a separate entry of the source.

Experiments:
[1] = brain penetration after a single dose in mice; type: in vivo, mouse
Protocol: (§1) To assess the ability of N3PT to inhibit transketolase in vivo, a single dose of N3PT was administered to Balb C nude mice (ip, 100 mg/kg), and blood and tissue samples were collected over time and enzymatic activities determined. Blood samples were taken (40 μl whole blood) serially or from sacrificed animals at the end of a study. Tissues, including tumor, brain, heart, kidney, liver, lung, spleen, were taken and flash frozen in liquid nitrogen or on dry ice and stored at −80° C. until assay. Blood was diluted into lysis buffer and dissolved. Tissues were suspended in lysis buffer and homogenized with PowerGen 125 (Fisher Scientific) while being submerged in an ice-water bath.

HCT-116 Luc+ tumors = test: mouse xenograft model, tumor growth; type: in vivo; conditions: 200 mg/kg/day, twice daily, ip; Balb C nude mice
Protocol: A mouse xenograft model was used to evaluate the efficacy of N3PT in modulating tumor growth. Cancer cells (HCT-116 Luc+, comprising a stably transfected luciferase gene) were injected subcutaneously (10^6 cells) into Balb C nude mice on both flanks on day 7 prior to treatment. Tumors were allowed to grow to palpable size from test day 0, defined as the start of a treatment regime. N3PT was injected ip (intraperitoneally) at a given regimen (e.g., 200 mg/kg/day) and tumor size monitored by luminance intensity from day 0-7, caliper measurement after day 7, and by weight at the end of study, after the animals were sacrificed. See, e.g., Wang and El-Deiry, Cancer Biol Ther. 2(2):196-202 (2003); Ray et al., Cancer Res. 63(6):1160-5 (2003); see also, e.g., U.S. Pat. Nos. 6,416,960; 6,596,257; and 6,217,847.

K562 = test: inhibition of proliferation of K562 cells; type: cell-based; conditions: K562 CML line
Protocol: The ability of N3PT to inhibit proliferation of these cell lines was then tested. LAMA84 was the most sensitive to N3PT, displaying an IC50 of 0.3 μM. The other cell lines, HCT116 and K562, were less sensitive, displaying an IC50 of approximately 2 μM in both cases. LAMA84 also had the highest TK activity (per cell) among these three cancer lines.

transketolase [2] = target: T1, transketolase (Mus musculus, UniProt P40142); test: transketolase activity in blood and tissues of N3PT-treated mice; type: in vivo
T1 construct: from tissue; host or cells: whole blood, spleen, brain and other tissues of Balb C nude mice; also xenograft tumours
T1 sequence (P40142 1-623): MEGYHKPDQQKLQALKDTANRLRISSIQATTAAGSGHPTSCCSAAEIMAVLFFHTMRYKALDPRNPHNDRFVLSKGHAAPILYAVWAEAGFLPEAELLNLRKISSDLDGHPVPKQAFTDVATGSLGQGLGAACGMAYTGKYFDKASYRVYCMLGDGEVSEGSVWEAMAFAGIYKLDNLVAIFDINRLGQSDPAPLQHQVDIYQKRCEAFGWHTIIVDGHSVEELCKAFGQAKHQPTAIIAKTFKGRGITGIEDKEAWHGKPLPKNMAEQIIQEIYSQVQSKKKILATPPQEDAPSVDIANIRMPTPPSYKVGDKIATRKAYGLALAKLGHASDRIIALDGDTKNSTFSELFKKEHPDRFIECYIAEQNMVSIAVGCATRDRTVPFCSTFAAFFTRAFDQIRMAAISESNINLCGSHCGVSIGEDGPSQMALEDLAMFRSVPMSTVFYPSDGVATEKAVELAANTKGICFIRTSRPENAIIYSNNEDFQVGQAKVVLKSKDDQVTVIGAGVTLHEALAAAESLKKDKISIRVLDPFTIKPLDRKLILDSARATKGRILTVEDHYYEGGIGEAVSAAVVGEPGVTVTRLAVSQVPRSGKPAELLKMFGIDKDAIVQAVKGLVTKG
Protocol: as §1, with “To assess the ability of N3PT to inhibit transketolase in vivo, a single dose of N3PT was administered to Balb C nude mice (ip, 100 mg/kg), and blood and tissue samples were collected over time and enzymatic activities determined.” left out
(§2) Transketolase assays were performed as in Example 2. The lysate was used right away or flash frozen and stored at −80° C. until assay. The protein concentration in the lysate was determined using a Bradford assay (BioRad) with BSA as a standard. The enzymatic velocity was normalized to the total protein concentration for inter-sample comparisons. In order to obtain reliable results across samples, it was important to have similar starting protein concentrations (such as within 30%). This was achieved by weighing the tissue before lysis so that the suspensions contained similar tissue/ml lysis buffer for all samples.

transketolase [3] = test: as above; type: in vivo, mouse; conditions: 200 mg/kg/day, relative to vehicle
Protocol: as §1, with “To assess the ability of N3PT to inhibit transketolase in vivo, a single dose of N3PT was administered to Balb C nude mice (ip, 100 mg/kg), and blood and tissue samples were collected over time and enzymatic activities determined.” left out
as §2

- IC50 (K562): ~2000 nM
- transketolase activity in tumors (transketolase [3]): reduced
Structure (SMILES): Cc1ccc(C[n+]2csc(CCO)c2C)c(N)n1 [N3PT, 3-[(2-amino-6-methyl-3-pyridinyl)methyl]-5-(2-hydroxyethyl)-4-methyl thiazolium]
- brain penetration [1]: little or no significant brain penetration
- growth of explant tumors (HCT-116 Luc+ tumors): inhibits growth of tumors in vivo; also recorded: inhibited the growth of explant tumors
- transketolase activity in whole blood (transketolase [2]; 200 mg/kg/day, relative to vehicle): reduced; also recorded: selectively inhibited
- sensitivity of spleen transketolase to N3PT on low-thiamine diet (transketolase [2]; diets with 16.5, 5, 1 or 0 mg/kg thiamine, N3PT ip, 12 hours later): enhances the sensitivity to N3PT inhibition of TK in spleen; also recorded: more sensitive to TK inhibition by N3PT
- selectivity of transketolase inhibition in vivo versus kGDH and G6PDH (transketolase [2]; single dose 100 mg/kg body weight, mouse, 100 mg/kg): selective inhibitor of transketolase in vivo; also recorded: selectively inhibits transketolase
- duration of transketolase inhibition in vivo (transketolase [2]; single dose 100 mg/kg i.p., blood and spleen, 0-120 hr, 100 mg/kg): potent and long-lasting transketolase inhibitor in vivo
